# Read-outs that look alike come from different tables or passages of the source.
# What was measured:
# [1] = Thermodynamic solubility (solid shaken in solvent at 37° C., filtrate by LC/UV); assay type: physicochemical
# Protocol: Briefly, 300 ul of solvent (ethanol, 0.1 M HCl or distilled H2O) were added to 14-16 mg of the solid compound (5 parallel measurements per sample, per solvent, mean concentrations 93-107 mM). The mixtures were shaken at 37° C. for 24 and 72 hours. Concentrations of the filtrates were determined by liquid chromatography with UV detector (LC/UV) with 3-point calibration.
# Crystal form was checked by X-ray powder diffraction (XRPD) after recovering the slurry at 24 and 72 hours. […] The exact cause of this observed phenomenon is not known.
# [2] = system: liver aminotransferases; experiment: Clinical trials of daily oral CDB-4124 (Proellex): liver toxicity / liver enzymes; assay type: in vivo, human
# Protocol: (§1) The maximum concentrations of CDB-4124 and its mono-demethylated metabolite (CDB-4453) for the 12.5 mg dose were 25% of the 50 mg dose. All liver toxicities resolved in those women that returned for safety follow-ups, including those subjects that developed liver-associated serious adverse effects (SAEs).
# To date, over 600 patients, including women with confirmed cases of endometriosis or uterine fibroids, have participated in double blind and open label clinical trials in which patients were administered daily oral capsules containing doses of 12.5 mg, 25 mg or 50 mg CDB-4124 (Proellex) for over one month. Of these patients, about 500 received Proellex and about 130 received a placebo. Of the patients receiving Proellex, about 190 received a dose of 50 mg CDB-4124 per day, about 260 received a dose of 25 mg CDB-4124 per day and about 55 received a dose of 12.5 mg per day.
# Liver enzymes were frequently monitored in participating subjects. The liver enzyme level at which the clinical trials would be discontinued was set at an increase in liver aminotransferases greater than, or equal to three times the Upper Limit of Normal (≧3×ULN).
# Of the nine subjects with a confirmed increase in liver enzymes≧3×ULN, seven were severe enough elevations to be reported to the FDA as SAEs. One of these seven subjects had been receiving a dose of 25 mg CDB-4124 per day; the remaining six subjects had been receiving a dose of 50 mg CDB-4124 per day. Liver enzymes≧3×ULN persisted in five of the nine subjects with a confirmed increase in liver enzymes≧3×ULN. These five subjects had previously been dosed with the 50 mg dose. One of these subjects is receiving oral medication for treatment of their liver condition. Clinical trials involving CDB-4124 at all doses were voluntarily suspended as a result of these SAEs and were subsequently placed on clinical hold by the United States Food and Drug Administration for safety reasons.
# [3] = Pharmacokinetic studies on clinical trial subjects after oral CDB-4124; assay type: in vivo, human; details: for Maximum concentration for the 12.5 mg dose relative to the 50 mg dose: oral CDB-4124, 12.5 mg vs 50 mg
# Protocol: as §1
# (§2) Pharmacokinetic studies performed on participating subjects detected a high Cmax and a Tmax at 1-2 hours following administration. […] Metabolism of CDB-4124 by the liver provides the opportunity for liver damage and greatly reduces the concentration of the antiprogestin before it reaches the systemic circulation. Thus, alternative routes of administration of antiprogestins that avoid first pass metabolism such as, without limitation, intravenous, intramuscular, and sublingual, should allow antiprogestins to be absorbed directly into the systemic circulation and thereby provide a method for treating progestone-dependent conditions while avoiding liver toxicity. Administration routes which avoid first pass metabolism may also require less drug per dose to achieve the same therapeutic benefit relative to oral administration.
# [4] = system: human hepatocytes; experiment: Metabolism in primary cultures of human hepatocytes; assay type: in vitro ADME
# Protocol: as §2
# [5] = system: animal hepatocytes; experiment: Metabolism in primary cultures of animal hepatocytes; assay type: in vitro ADME
# Protocol: as §2
# [6] = system: DMBA-induced breast tumors; experiment: DMBA-induced breast tumor pre-clinical study; assay type: in vivo, rodents; details: subcutaneous injection
# Protocol: Pre-clinical studies were performed on rodents with breast tumors induced by 7,12-Dimethylbenz(a)anthracene (DMBA).
# [7] = Oral vs vaginal pharmacokinetics in beagles (25 mg); assay type: in vivo; details: for Metabolism after peak plasma concentration: oral micronized powder; for Metabolism / Peak plasma concentrations (Cmax): vaginal suppository; for Systemic exposure (AUC), local vs oral: vaginal vs oral
# Protocol: FIG. 1 illustrates a comparison of the Cmax (peak serum concentration) and area under the curve (AUC) following oral and vaginal administration of CDB-4124 or CDB-4453 at a 25 mg dose in beagles.
# Beagles were administered 25 mg of CDB-4124 or CDB-4453 (the monodemethylated metabolite of CDB-4124) formulated as either a micronized powder or a vaginal suppository. […] Moreover, systemic exposure of the drug is much lower when administered locally (compare AUC for CDB-4124 and CDB-4453 when administered vaginally vs. orally).
# [8] = Cmax after vaginal administration extrapolated from beagles to humans; assay type: in vivo; details: for Predicted Cmax for vaginal administration as percentage of the same dose administered orally: humans
# Protocol: FIG. 2 illustrates the actual Cmax observed for Proellex (CDB-4124) and its monodemethylated metabolite CDB-4453, following oral administration of CDB-4124 at 12.5 mg, 25 mg and 50 mg doses as well as the projected Cmax for 3 mg, 6 mg and 9 mg doses. FIG. 2 also illustrates the actual Cmax observed for Proellex (CDB-4124) and its monodemethylated metabolite CDB-4453, following vaginal administration of CDB-4124 at 12.5 mg, 25 mg and 50 mg doses.
# The maximum circulating concentrations (Cmax) of CDB-4124 obtained following vaginal administration to beagles were extrapolated to humans for the 12.5 mg, 25 mg and 50 mg doses actually administered during the Phase III clinical studies.
# Because a high concentration of the drug in the systemic circulation (and associated first pass metabolism of the drug) is not reached by local administration, avoidance of the severe liver toxicity observed in a small percentage of subjects following oral administration of CDB-4124 in previous Phase III clinical studies at doses of 25 and 50 mg is a surprising advantage of administering the drug locally. Similar advantages should inure to local administration of other antiprogestins.
# [9] = system: progesterone-induced endometrial proliferation; experiment: Anti-Clauberg study, subcutaneous vs oral; assay type: in vivo, rabbits
# Text: FIG. 3 illustrates a comparison of the inhibition of progesterone-induced endometrial proliferation in estradiol-primed immature rabbits following subcutaneous injection and oral administration of CDB-4124
# To determine whether the low circulating levels of CDB-4124 when administered locally could have any impact predictive of efficacy, an anti-Clauberg study was run in which immature estradiol-primed rabbits were coadministered progesterone and various doses of CDB-4124 by either subcutaneous or oral administration. At least 3 different highly trained individuals evaluated the rabbit uterus for glandular growth, for complexity and overall progesterone-induced “development”. The inhibition (by percentage) of progesterone-induced endometrial proliferation at each dose was assayed. […] However, maximal inhibition required a ˜8-fold increase in dosage when administered orally (i.e. 8 mg/kg). Importantly 8 mg/kg corresponds closely to the 50 mg/day dose of CDB-4124 administered to the female subjects described in Example 3.
# [10] = system: progesterone-induced endometrial proliferation; experiment: Anti-Clauberg study, vaginal vs oral (McPhail index); assay type: in vivo, rabbits
# Protocol: FIG. 4 compares the antiprogestational effects of three doses of CDB-4124 when delivered orally versus when delivered to the vaginal mucosa of estradiol-primed immature rabbits in the presence of progesterone, as measured by a decrease in the McPhail index. Treatment with progesterone alone (vehicle control) provided a baseline measurement of progestational activity.
# Another anti-Clauberg study was run in which immature estradiol-primed rabbits were administered progesterone alone (vehicle control) or were co-administered progesterone and three doses of CDB-4124 by either vaginal or oral administration. The inhibition of progesterone-induced endometrial proliferation at each dose was assayed. FIG. 3 illustrates the decrease in the McPhail index following increasing doses of CDB-4124 administered by either route. Maximal inhibition (i.e. a decrease in the McPhail index to 1.5) occurred at 0.2 mg/kg CDB-4124 when administered vaginally, compared to 0.8 mg/kg when administered orally.
# [11] = Thermodynamic solubility (solid shaken in solvent at 37° C., filtrate by LC/UV); assay type: physicochemical; details: water and 1.0 M HCl, 24 vs 72 hours
# [12] = organic solvent or mixture, thermodynamic from solid, ethanol, 24 h, read-out: Thermodynamic solubility, Ethanol, Mean
# [13] = organic solvent or mixture, thermodynamic from solid, ethanol, 72 h, read-out: Thermodynamic solubility, Ethanol, Mean
# [14] = simulated gastric fluid, thermodynamic from solid, 0.1M HCl, 24 h, read-out: Thermodynamic solubility, 0.1M HCl, Mean
# [15] = simulated gastric fluid, thermodynamic from solid, 0.1M HCl, 72 h, read-out: Thermodynamic solubility, 0.1M HCl, Mean
# [16] = thermodynamic from solid, distilled water, 24 h, read-out: Thermodynamic solubility, Distilled water, Mean
# [17] = thermodynamic from solid, distilled water, 72 h, read-out: Thermodynamic solubility, distilled water, Mean
smiles,measurement,setting,value
COCC(=O)[C@@]1(OC(C)=O)CC[C@H]2[C@@H]3CCC4=CC(=O)CCC4=C3[C@@H](c3ccc(N(C)C)cc3)C[C@@]21C [CDB-4124],solubility thermodynamic at 72 h,"[1]; 0.1M HCl, 24 h, read-out: Thermodynamic solubility, 0.1M HCl, Mean",53.09 µM
same,solubility thermodynamic at 72 h,"[1]; 0.1M HCl, 72 h, read-out: Thermodynamic solubility, 0.1M HCl, Mean",56.12 µM
same,solubility thermodynamic at 72 h,"[1]; distilled water, 24 h, read-out: Thermodynamic solubility, distilled water, Mean",7.10 µM
same,solubility thermodynamic at 72 h,"[1]; distilled water, 72 h, read-out: Thermodynamic solubility, distilled water, Mean",3.20 µM
same,"Thermodynamic solubility, Ethanol, Mean","[1]; ethanol, 24 h",36800 µM
same,"Thermodynamic solubility, Ethanol, Mean","[1]; ethanol, 72 h",34100 µM
same,Subjects with elevations reported as SAEs,[2]; 25 mg CDB-4124 per day,One
same,Subjects with elevations reported as SAEs,[2]; 50 mg CDB-4124 per day,six
same,Subjects with elevations severe enough to be reported as SAEs,[2]; all doses,seven
same,Subjects found to exhibit an increase in liver enzymes ≧3×ULN,"[2]; all doses, before repeat test",thirteen
same,Subjects with confirmed increase in liver enzymes ≧3×ULN,"[2]; all doses, confirmed by repeat test in 48 hours",nine
same,Adverse liver toxicity signals,"[2]; oral, 12.5 mg",no adverse liver toxicity signals different from placebo
same,Liver toxicity effects at 25 mg/day compared with 50 mg/day,"[2]; oral, 25 mg/day vs 50 mg/day",significantly lower in frequency and intensity
same,Women exhibiting severe liver toxicity,"[2]; oral, 50 mg/day",3-4%
same,Subjects in whom liver enzymes ≧3×ULN persisted,[2]; previously dosed with the 50 mg dose,five
same,Cmax,[3]; following oral administration,high
same,Monodemethylated metabolite detected (first pass metabolism),[3]; following oral administration,Large quantities
same,Tmax,[3]; following oral administration,1 to 2 h
same,Maximum concentration for the 12.5 mg dose relative to the 50 mg dose,[3],25%
same,Production of the mono-demethylated metabolite,[4],rapidly produce the mono-demethylated metabolite
same,Production of the mono-demethylated metabolite,[5],rapidly produce the mono-demethylated metabolite
same,Effect on quantity and size of DMBA-induced breast tumors,[6],effective in reducing the quantity and size of DMBA-induced breast tumors
same,Metabolism after peak plasma concentration,[7],rapidly metabolized
same,Metabolism,[7],metabolized slowly
same,Peak plasma concentrations (Cmax),[7],relatively low
same,"Systemic exposure (AUC), local vs oral",[7],much lower
same,Predicted Cmax for vaginal administration as percentage of the same dose administered orally,[8]; 12.5 mg dose,approximately 6.5%
same,Cmax with 12.5 mg vaginal dose relative to 50 mg oral dose,[8]; 12.5 mg vaginal vs 50 mg oral,2%
same,Predicted Cmax for vaginal administration as percentage of the same dose administered orally,[8]; 50 mg dose,approximately 2%
same,Dose required for maximal inhibition,[9]; oral,8 mg/kg
same,"Increase in dosage required for maximal inhibition, oral vs subcutaneous",[9]; oral vs subcutaneous,~8 fold
same,Dose at which maximal inhibition was observed,[9]; subcutaneous,less than 1 mg/kg
same,McPhail index at maximal inhibition,[10]; 0.2 mg/kg vaginal or 0.8 mg/kg oral,1.5
same,Dose at which maximal inhibition occurred,[10]; oral,0.8 mg/kg
same,Dose at which maximal inhibition occurred,[10]; vaginal,0.2 mg/kg
same,Antiprogestational activity of vaginal delivery relative to the same oral dose,[10]; vaginal vs oral,four times the antiprogestational activity
"COCC(=O)[C@@]1(OC(C)=O)CC[C@H]2[C@@H]3CCC4=CC(=O)CCC4=C3[C@@H](c3ccc(C(C)=O)cc3)C[C@@]21C [CDB-4239, 21-methoxy-17α-acetoxy-11β-(4-acetylphenyl)-19-norpregna-4,9-diene-3,20-dione]",solubility thermodynamic at 24 h,[1]; [12],> 98200 µM
same,solubility thermodynamic at 72 h,[1]; [13],> 100000 µM
same,solubility thermodynamic at 24 h,[1]; [14],140 µM
same,solubility thermodynamic at 72 h,[1]; [15],110 µM
same,solubility thermodynamic at 24 h,[1]; [16],141 µM
same,solubility thermodynamic at 72 h,[1]; [17],54.8 µM
same,Tendency of water and HCl solubilities between 24 and 72 hours,[11],decreasing tendency
"CC(=O)OCC(=O)[C@@]1(OC(C)=O)CC[C@H]2[C@@H]3CCC4=CC(=O)CCC4=C3[C@@H](c3ccc(C(C)=O)cc3)C[C@@]21C [CDB-4241, 21-acetoxy-17α-acetoxy-11β-(4-acetylphenyl)-19-norpregna-4,9-diene-3,20-dione]",solubility thermodynamic at 24 h,[1]; [12],26300 µM
same,solubility thermodynamic at 72 h,[1]; [13],21600 µM
same,solubility thermodynamic at 24 h,[1]; [14],3.21 µM
same,solubility thermodynamic at 72 h,[1]; [15],3.9 µM
same,solubility thermodynamic at 24 h,[1]; [16],3.08 µM
same,solubility thermodynamic at 72 h,[1]; [17],3.05 µM
CNc1ccc([C@H]2C[C@@]3(C)[C@@H](CC[C@]3(OC(C)=O)C(=O)COC)[C@@H]3CCC4=CC(=O)CCC4=C32)cc1 [CDB-4453],Maximum concentration for the 12.5 mg dose relative to the 50 mg dose,[3],25%
same,Metabolism after peak plasma concentration,[7],rapidly metabolized
same,Metabolism,[7],metabolized slowly
same,Peak plasma concentrations (Cmax),[7],relatively low
same,"Systemic exposure (AUC), local vs oral",[7],much lower
"CC(=O)O[C@]1(C(C)=O)CC[C@H]2[C@@H]3CCC4=CC(=O)CCC4=C3[C@@H](c3ccc(C(C)=O)cc3)C[C@@]21C [REP-4510, 17α-acetoxy-11β-(4-acetylphenyl)-19-norpregna-4,9-dien-3,20-dione]",solubility thermodynamic at 24 h,[1]; [12],3300 µM
same,solubility thermodynamic at 72 h,[1]; [13],2900 µM
same,solubility thermodynamic at 24 h,[1]; [14],0.5 µM
same,solubility thermodynamic at 72 h,[1]; [15],0.45 µM
same,solubility thermodynamic at 24 h,[1]; [16],0.52 µM
same,solubility thermodynamic at 72 h,[1]; [17],0.44 µM

# Reference: US20150203526A1, “NOVEL 19-NOR-STEROIDS AND THEIR USE FOR TREATING PROGESTERONE- DEPENDENT CONDITIONS” (REPROS THERAPEUTICS INC., priority 2010, published 2015)
